Results as given in paper PMC8752738, “A propolis-derived small molecule ameliorates metabolic syndrome in obese mice by targeting the CREB/CRTC2 transcriptional complex” (Nature Communications, 2022).
Where “and” joins values, the source holds several entries; their conditions need not be identical. Equal values may be shown once.

Test system: tissue mRNA levels
Experiment: Quantitative PCR of tissue gene expression in treated mice
Type: in vivo, mouse
Parameters: key to mRNA levels Scap / mRNA levels Insig1 / mRNA levels Ldlr / mRNA levels Mttp / mRNA levels Atgl / mRNA levels Tnfaip2 / mRNA levels Rxra / mRNA levels Srebf1 / mRNA levels Ucp2: mRNA level normalized to ribosomal L32 mRNA (internal control)
Settings: for Lxra mRNA level: Figure 7g right, APC-20, single animals
Description: Total RNA from cells and tissues was extracted by Trizol (Invitrogen) and reverse-transcribed into cDNA using the prime script RT reagent kit with gDNA eraser (Takara). The mRNA levels were determined using the SYBR-green PCR kit (Takara) with ABIPRISM 7900HT Sequence detector (ABI) according to the manufacturer’s protocol. The quantitative qPCR primers used in this work are listed in Supplementary Table 1. Ribosomal L32 mRNA levels were used as an internal control.

[1] = Figure 6f, CRTC2KO mice, oral APC, individual mice
[2] = Figure 6f, WT mice, oral APC, group mean, N 6
[3] = Figure 6f, WT mice, oral APC, individual mice
[4] = Figure 8b, group mean, VEH mean 1.017
[5] = Figure 8b, individual mice, relative to CT
[6] = Figure 6d, white fat (WF) tissue of DIO mice, individual animals

CC(C)=CCc1cc(C=CC(=O)O)cc(CC=C(C)C)c1O [APC, 3,5-diprenyl-4-hydroxycinnamic acid]
mRNA of Srebf-1c [1]: 0.7027 and 0.8687 and 0.636 and 0.7129 and 0.563 and 0.649
mRNA of Srebf-2 [1]: 0.9632 and 0.7439 and 0.6331 and 0.8903 and 0.6443 and 0.8216
mRNA of Srebf-1c, Mean Diff. APC - VEH (Figure 6f, WT mice, oral APC): -0.3789
mRNA of Srebf-2, Mean Diff. APC - VEH (Figure 6f, WT mice, oral APC): -0.3018
mRNA of Srebf-1c, Mean 1 (APC) [2]: 0.629
mRNA of Srebf-2, Mean 1 (APC) [2]: 0.7556
mRNA of Srebf-1c [3]: 0.563 and 0.9627 and 0.5968 and 0.3599 and 0.5266 and 0.7651
mRNA of Srebf-2 [3]: 0.6655 and 0.7786 and 0.6178 and 0.7571 and 0.8561 and 0.8585
Lxra mRNA level (Crtc2KO mice): 1.153 and 0.7926 and 0.8176 and 0.4111 and 0.7938
Lxra mRNA level (WT mice): 0.6135 and 0.274 and 0.3613 and 0.5157 and 0.4764
mRNA levels G6Pase, Mean of APC (Figure 8b, group mean, VEH mean 1.004): 0.5682
mRNA levels Pck1, Mean of APC [4]: 0.584
mRNA levels Pgc-1a, Mean of APC [4]: 0.499
mRNA levels G6Pase [5]: 0.4956 and 0.4542 and 0.8275 and 0.9159 and 0.3526 and 0.3635
mRNA levels Pck1 [5]: 0.4515 and 0.4432 and 0.8122 and 0.7784 and 0.5234 and 0.4955
mRNA levels Pgc-1a [5]: 0.6618 and 0.6014 and 0.6454 and 0.5396 and 0.2614 and 0.2843
mRNA levels ApoB, Mean of APC (Figure 6d, white fat (WF) tissue of DIO mice, group mean, Mean of VEH 0.9173): 0.3598
mRNA levels Srebf-1c, Mean of APC (Figure 6d, white fat (WF) tissue of DIO mice, group mean, Mean of VEH 0.9567): 0.3721
mRNA levels Acsl1, Mean of APC (Figure 6d, white fat (WF) tissue of DIO mice, group mean, Mean of VEH 0.9649): 0.4379
mRNA levels Lxra, Mean of APC (Figure 6d, white fat (WF) tissue of DIO mice, group mean, Mean of VEH 0.976): 0.6757
mRNA levels Cebpa, Mean of APC (Figure 6d, white fat (WF) tissue of DIO mice, group mean, Mean of VEH 0.9829): 1.129
mRNA levels Creb, Mean of APC (Figure 6d, white fat (WF) tissue of DIO mice, group mean, Mean of VEH 0.9868): 1.007
mRNA levels Cpt1, Mean of APC (Figure 6d, white fat (WF) tissue of DIO mice, group mean, Mean of VEH 0.9898): 1.536
mRNA levels Pparγ, Mean of APC (Figure 6d, white fat (WF) tissue of DIO mice, group mean, Mean of VEH 0.9976): 0.9616
mRNA levels Tnfaip2, Mean of APC (Figure 6d, white fat (WF) tissue of DIO mice, group mean, Mean of VEH 1.005): 0.9923
mRNA levels Pgc-1a, Mean of APC (Figure 6d, white fat (WF) tissue of DIO mice, group mean, Mean of VEH 1.009): 0.704
mRNA levels Srebf-2, Mean of APC (Figure 6d, white fat (WF) tissue of DIO mice, group mean, Mean of VEH 1.017): 0.6488
mRNA levels Acc, Mean of APC (Figure 6d, white fat (WF) tissue of DIO mice, group mean, Mean of VEH 1.018): 0.5342
mRNA levels Scd1, Mean of APC (Figure 6d, white fat (WF) tissue of DIO mice, group mean, Mean of VEH 1.022): 0.5423
mRNA levels Fasn, Mean of APC (Figure 6d, white fat (WF) tissue of DIO mice, group mean, Mean of VEH 1.036): 0.5535
mRNA levels Mgll, Mean of APC (Figure 6d, white fat (WF) tissue of DIO mice, group mean, Mean of VEH 1.041): 0.6295
mRNA levels Retn, Mean of APC (Figure 6d, white fat (WF) tissue of DIO mice, group mean, Mean of VEH 1.044): 0.3139
mRNA levels Glut4, Mean of APC (Figure 6d, white fat (WF) tissue of DIO mice, group mean, Mean of VEH 1.054): 0.2982
mRNA levels Atgl, Mean of APC (Figure 6d, white fat (WF) tissue of DIO mice, group mean, Mean of VEH 1.057): 1.332
mRNA levels Hsl, Mean of APC (Figure 6d, white fat (WF) tissue of DIO mice, group mean, Mean of VEH 1.069): 1.68
mRNA levels Lpl, Mean of APC (Figure 6d, white fat (WF) tissue of DIO mice, group mean, Mean of VEH 1.114): 0.6106
mRNA levels Pgc-1b, Mean of APC (Figure 6d, white fat (WF) tissue of DIO mice, group mean, Mean of VEH 1.126): 0.666
mRNA levels Acc [6]: 0.5239 and 0.3917 and 0.6963 and 0.6783 and 0.5952 and 0.3196
mRNA levels Acsl1 [6]: 0.4459 and 0.1537 and 0.5539 and 0.2927 and 0.6116 and 0.5696
mRNA levels ApoB [6]: 0.3337 and 0.2599 and 0.6345 and 0.1702 and 0.408 and 0.3527
mRNA levels Atgl [6]: 1.322 and 1.233 and 1.718 and 1.2249 and 1.301 and 1.192
mRNA levels Cebpa [6]: 1.279 and 0.9809 and 1.111 and 1.353 and 1.154 and 0.8979
mRNA levels Cpt1 [6]: 1.627 and 1.184 and 1.402 and 2.24 and 1.4196 and 1.345
mRNA levels Creb [6]: 1.411 and 1.393 and 1.026 and 0.3555 and 0.9743 and 0.8802
mRNA levels Fasn [6]: 0.5104 and 0.4062 and 0.9888 and 0.3127 and 0.6571 and 0.4456
mRNA levels Glut4 [6]: 0.4697 and 0.1331 and 0.1991 and 0.1942 and 0.3683 and 0.4245
mRNA levels Hsl [6]: 2.303 and 1.694 and 1.5898 and 1.21 and 1.869 and 1.4146
mRNA levels Lpl [6]: 0.6557 and 0.743 and 0.6544 and 0.3781 and 0.733 and 0.4994
mRNA levels Lxra [6]: 0.7883 and 0.7167 and 0.4804 and 0.6732 and 0.7502 and 0.6457
mRNA levels Mgll [6]: 0.5524 and 0.27 and 0.8642 and 0.6156 and 0.9323 and 0.5423
mRNA levels Pgc-1a [6]: 0.5315 and 0.7402 and 0.6723 and 0.7798 and 0.8847 and 0.6158
mRNA levels Pgc-1b [6]: 0.683 and 0.7869 and 0.6257 and 0.4165 and 0.7943 and 0.6894
mRNA levels Ppargamma [6]: 1.1637 and 0.8189 and 1.303 and 0.8539 and 0.722 and 0.9079
